According to article PMC6271078 (Molecules, 2014):

Test: Aqueous solubility
Type: physicochemical
Conditions: for Times Increased of Aqueous Solubility (Comp. vs. Rapa): ratio of compound solubility to Rapa solubility

Row | SMILES | Times Increased of Aqueous Solubility (Comp. vs. Rapa) | solubility (water) [mg/mL] | Aqueous Solubility (water) [mg/mL]
1 | CO[C@H]1C[C@@H]2CC[C@@H](C)[C@@](O)(O2)C(=O)C(=O)N2CCCC[C@H]2C(=O)O[C@H]([C@H](C)C[C@@H]2CC[C@@H](OC(=O)C[n+]3cccc(C)c3)[C@H](OC)C2)CC(=O)[C@H](C)/C=C(\C)[C@@H](O)[C@@H](OC)C(=O)[C@H](C)C[C@H](C)/C=C/C=C/C=C/1C [Compound 4, Rapa-42-ester of 2-(3-methylpyridinium-1-yl)acetic Acid] | 2577 | 6.7 | 
2 | CO[C@H]1C[C@@H]2CC[C@@H](C)[C@@](O)(O2)C(=O)C(=O)N2CCCC[C@H]2C(=O)O[C@H]([C@H](C)C[C@@H]2CC[C@@H](OC(=O)C[n+]3cscc3C)[C@H](OC)C2)CC(=O)[C@H](C)/C=C(\C)[C@@H](O)[C@@H](OC)C(=O)[C@H](C)C[C@H](C)/C=C/C=C/C=C/1C [Compound 2, Rapa-42-ester of 2-(4-methylthiazolium-3-yl)acetic Acid] | 11 | 0.028 | 
3 | CO[C@H]1C[C@@H]2CC[C@@H](C)[C@@](O)(O2)C(=O)C(=O)N2CCCC[C@H]2C(=O)O[C@H]([C@H](C)C[C@@H]2CC[C@@H](O)[C@H](OC)C2)CC(=O)[C@H](C)/C=C(\C)[C@@H](OC(=O)C[n+]2cscc2C)[C@@H](OC)C(=O)[C@H](C)C[C@H](C)/C=C/C=C/C=C/1C [Compound 8, Rapa-31-ester of 2-(4-methylthiazolium-3-yl)acetic Acid] | 3846 | 10 | 
4 | CO[C@H]1C[C@@H]2CC[C@@H](C)[C@@](O)(O2)C(=O)C(=O)N2CCCC[C@H]2C(=O)O[C@H]([C@H](C)C[C@@H]2CC[C@@H](OC(=O)C[n+]3ccccc3)[C@H](OC)C2)CC(=O)[C@H](C)/C=C(\C)[C@@H](O)[C@@H](OC)C(=O)[C@H](C)C[C@H](C)/C=C/C=C/C=C/1C [Compound 3, Rapa-42-ester of 2-(pyridinium-1-yl)acetic Acid] | 10 | 0.025 | 
5 | CO[C@H]1C[C@@H]2CC[C@@H](C)[C@@](O)(O2)C(=O)C(=O)N2CCCC[C@H]2C(=O)O[C@H]([C@H](C)C[C@@H]2CC[C@@H](OC(=O)C[n+]3cccc(O)c3)[C@H](OC)C2)CC(=O)[C@H](C)/C=C(\C)[C@@H](O)[C@@H](OC)C(=O)[C@H](C)C[C@H](C)/C=C/C=C/C=C/1C [Compound 5, Rapa-42-ester of 2-(3-hydroxypyridinium-1-yl)acetic Acid] | 4 | 0.01 | 
6 | CO[C@H]1C[C@@H]2CC[C@@H](C)[C@@](O)(O2)C(=O)C(=O)N2CCCC[C@H]2C(=O)O[C@H]([C@H](C)C[C@@H]2CC[C@@H](O)[C@H](OC)C2)CC(=O)[C@H](C)/C=C(\C)[C@@H](OC(=O)C[n+]2ccc(C)cc2)[C@@H](OC)C(=O)[C@H](C)C[C@H](C)/C=C/C=C/C=C/1C [Compound 11, Rapa-31-ester of 2-(4-methylpyridinium-1-yl)acetic Acid] |  | 62 | 62.5
7 | CO[C@H]1C[C@@H]2CC[C@@H](C)[C@@](O)(O2)C(=O)C(=O)N2CCCC[C@H]2C(=O)O[C@H]([C@H](C)C[C@@H]2CC[C@@H](O)[C@H](OC)C2)CC(=O)[C@H](C)/C=C(\C)[C@@H](OC(=O)C[n+]2cccc(C)c2)[C@@H](OC)C(=O)[C@H](C)C[C@H](C)/C=C/C=C/C=C/1C [Compound 9, Rapa-31-ester of 2-(3-methylpyridinium-1-yl)acetic Acid] | 10269 | 26.7 | 
8 | CO[C@H]1C[C@@H]2CC[C@@H](C)[C@@](O)(O2)C(=O)C(=O)N2CCCC[C@H]2C(=O)O[C@H]([C@H](C)C[C@@H]2CC[C@@H](OC(=O)C[n+]3csc(C)c3C)[C@H](OC)C2)CC(=O)[C@H](C)/C=C(\C)[C@@H](O)[C@@H](OC)C(=O)[C@H](C)C[C@H](C)/C=C/C=C/C=C/1C [Compound 1, Rapa-42-ester of 2-(4,5-dimethylthiazolium-3-yl)acetic Acid] | 1615 | 4.2 | 
